Measured values published in patent publication US9499519B2, “Fused pyrimidine compounds and use thereof” (Medivation Technologies, Inc., priority 2012, dated 2016).
Read-outs that look alike come from different tables or passages of the source.

How the values were obtained:
IGF-1R = biological target: T1, IGF-1R (Homo sapiens, UniProt P08069); assay: In vitro IGF-1R enzymatic assay (ADP-Glo kinase assay); type: biochemical; conditions: activated IGF-1R; for % Inh @ 30 nM Avg / inhibition at 0.03 µM / % Inh @ 30 nM (N1) / % Inh @ 30 nM (N2): 30 nM; for % Inh @ 30 nM (N1) / % Inh @ 30 nM (N2): 0.03 µM
T1 construct: purchased Millipore 14-802
Method: (§1) IC50 values of the compounds of the invention against IGF-1R and IR were measured in vitro using an ADP-Glo kinase assay Kit (Promega). […] Kinase reactions in both assays were conducted at 30° C. for 20 min with increasing concentrations of compounds of the invention.
Additional compounds of the invention were screened against activated IGF-1R.

IR = biological target: T2, IR (Homo sapiens, UniProt P06213); assay: In vitro IR enzymatic assay (ADP-Glo kinase assay); type: biochemical; conditions: activated IR, 30 nM
T2 construct: purchased Millipore 14-803
Method: as §1
Additional compounds of the invention were screened against activated IR.

[1] = system: Akt phosphorylation induced by IGF-1R; assay: Western blot analysis of Akt phosphorylation induced by IGF-1 in HT-29 cells; type: cell-based, Human; conditions: for Levels of phosphorylated AKT in treated cells (pAKT/actin): HT-29 cells, IGF-1; for p-AKT relative to levels with 0.1 nM compound: Table B2 lower part; for Normalized phosphorylated AKT (relative to actin) levels relative to 0.1 nM compound treatment: Table B2 upper part
Method: Inhibition of Akt phosphorylation induced by IGF-1R was studied by western blot analysis. Human colon carcinoma HT-29 cells were seeded at a density of 8×10^4 cells/well in a 24-well plate and grown in DME/F12 media containing 10% FBS for 24 h. The cells were then depleted of serum by incubation in DME/F12 media lacking FBS for 24 h. […] […] Lysed cells were centrifuged at 13,000 rpm for 15 min and the protein concentration soluble fraction (supernatant) of each sample was determined using a BCA protein assay (Pierce).

[2] = N1, read-out: % Inh @ 30 nM (N1)
[3] = N2, read-out: % Inh @ 30 nM (N2)
[4] = average, read-out: % Inh @ 30 nM Avg

T2 sequence (P06213 28-1382): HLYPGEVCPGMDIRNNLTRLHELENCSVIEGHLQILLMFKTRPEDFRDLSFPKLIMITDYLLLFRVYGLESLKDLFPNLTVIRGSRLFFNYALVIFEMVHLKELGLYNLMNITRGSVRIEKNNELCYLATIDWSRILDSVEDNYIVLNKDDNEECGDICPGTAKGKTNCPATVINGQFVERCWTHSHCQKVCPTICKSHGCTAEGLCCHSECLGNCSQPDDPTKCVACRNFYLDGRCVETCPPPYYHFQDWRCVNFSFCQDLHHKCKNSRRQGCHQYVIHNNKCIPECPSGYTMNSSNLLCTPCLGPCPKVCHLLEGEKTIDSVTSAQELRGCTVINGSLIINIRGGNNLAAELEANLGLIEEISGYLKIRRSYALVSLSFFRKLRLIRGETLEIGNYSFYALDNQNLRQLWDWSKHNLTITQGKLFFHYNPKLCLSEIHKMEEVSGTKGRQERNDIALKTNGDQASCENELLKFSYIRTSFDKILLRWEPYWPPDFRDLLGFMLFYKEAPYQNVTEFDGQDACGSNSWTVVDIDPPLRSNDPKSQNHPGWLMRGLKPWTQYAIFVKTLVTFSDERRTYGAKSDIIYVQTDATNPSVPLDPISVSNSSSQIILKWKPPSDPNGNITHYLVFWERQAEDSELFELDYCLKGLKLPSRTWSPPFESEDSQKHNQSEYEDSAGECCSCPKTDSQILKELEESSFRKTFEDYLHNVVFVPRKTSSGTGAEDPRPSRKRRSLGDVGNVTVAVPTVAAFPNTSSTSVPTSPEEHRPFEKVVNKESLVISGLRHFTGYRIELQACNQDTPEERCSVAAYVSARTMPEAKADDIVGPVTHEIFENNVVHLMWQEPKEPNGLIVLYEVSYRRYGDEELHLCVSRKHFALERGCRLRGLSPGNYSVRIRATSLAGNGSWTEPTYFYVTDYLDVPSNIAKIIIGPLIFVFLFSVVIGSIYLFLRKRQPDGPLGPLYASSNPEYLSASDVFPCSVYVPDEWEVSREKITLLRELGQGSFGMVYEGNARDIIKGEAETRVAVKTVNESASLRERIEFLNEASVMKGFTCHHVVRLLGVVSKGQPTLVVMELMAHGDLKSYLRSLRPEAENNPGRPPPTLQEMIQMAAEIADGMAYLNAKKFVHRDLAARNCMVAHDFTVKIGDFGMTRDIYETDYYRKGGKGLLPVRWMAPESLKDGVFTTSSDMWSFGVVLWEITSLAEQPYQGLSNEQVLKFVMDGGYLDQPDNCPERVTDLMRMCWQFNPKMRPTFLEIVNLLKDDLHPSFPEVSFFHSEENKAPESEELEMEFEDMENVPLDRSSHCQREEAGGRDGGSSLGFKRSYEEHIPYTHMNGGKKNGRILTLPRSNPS
T1 sequence (P08069 31-1367): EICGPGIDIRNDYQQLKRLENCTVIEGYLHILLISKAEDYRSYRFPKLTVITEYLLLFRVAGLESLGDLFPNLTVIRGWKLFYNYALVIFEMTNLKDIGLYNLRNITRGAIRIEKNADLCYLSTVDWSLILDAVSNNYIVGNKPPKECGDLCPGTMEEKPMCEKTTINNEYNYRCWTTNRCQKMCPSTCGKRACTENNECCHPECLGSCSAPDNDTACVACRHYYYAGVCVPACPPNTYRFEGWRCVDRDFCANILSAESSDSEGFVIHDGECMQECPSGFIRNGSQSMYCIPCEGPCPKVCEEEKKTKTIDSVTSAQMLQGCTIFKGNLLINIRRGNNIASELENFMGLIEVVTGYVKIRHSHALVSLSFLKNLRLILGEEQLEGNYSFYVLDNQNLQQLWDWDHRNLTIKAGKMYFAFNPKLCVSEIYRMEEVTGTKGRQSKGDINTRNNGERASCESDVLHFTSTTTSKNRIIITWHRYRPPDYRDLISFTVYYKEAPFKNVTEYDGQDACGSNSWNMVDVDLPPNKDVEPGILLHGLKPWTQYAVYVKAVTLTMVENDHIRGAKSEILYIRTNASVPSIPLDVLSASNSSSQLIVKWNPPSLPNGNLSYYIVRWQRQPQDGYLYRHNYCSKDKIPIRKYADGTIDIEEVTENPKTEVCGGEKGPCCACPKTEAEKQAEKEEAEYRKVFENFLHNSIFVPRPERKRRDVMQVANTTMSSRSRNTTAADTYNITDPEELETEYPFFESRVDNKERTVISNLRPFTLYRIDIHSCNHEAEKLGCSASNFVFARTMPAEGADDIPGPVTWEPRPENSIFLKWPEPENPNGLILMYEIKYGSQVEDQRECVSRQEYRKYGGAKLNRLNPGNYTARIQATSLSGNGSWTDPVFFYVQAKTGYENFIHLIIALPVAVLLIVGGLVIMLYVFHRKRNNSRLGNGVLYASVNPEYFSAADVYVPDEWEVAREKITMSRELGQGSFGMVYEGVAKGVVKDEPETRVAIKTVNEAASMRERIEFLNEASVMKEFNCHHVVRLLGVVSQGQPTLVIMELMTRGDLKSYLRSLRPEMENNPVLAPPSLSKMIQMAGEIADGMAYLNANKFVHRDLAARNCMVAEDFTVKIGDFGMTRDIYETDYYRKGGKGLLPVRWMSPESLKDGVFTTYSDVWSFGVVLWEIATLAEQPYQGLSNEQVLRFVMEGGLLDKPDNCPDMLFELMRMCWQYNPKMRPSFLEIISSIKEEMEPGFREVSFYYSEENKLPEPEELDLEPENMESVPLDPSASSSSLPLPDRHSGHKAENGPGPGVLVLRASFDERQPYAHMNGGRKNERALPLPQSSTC

Row | SMILES | % Inh @ 30 nM Avg (IGF-1R; average) | % Inh @ 30 nM Avg (IR; average) | inhibition at 0.03 µM (IGF-1R; [4]) | inhibition at 0.03 µM (IR; [4]) | Levels of phosphorylated AKT in treated cells (pAKT/actin) ([1]; 0.1 nM compound) | p-AKT relative to levels with 0.1 nM compound ([1]; 0.1 nM) | Normalized phosphorylated AKT (relative to actin) levels relative to 0.1 nM compound treatment ([1]; 0.1 nM) | Levels of phosphorylated AKT in treated cells (pAKT/actin) ([1]; 1 nM compound) | p-AKT relative to levels with 0.1 nM compound ([1]; 1 nM) | Normalized phosphorylated AKT (relative to actin) levels relative to 0.1 nM compound treatment ([1]; 1 nM) | Levels of phosphorylated AKT in treated cells (pAKT/actin) ([1]; 10 nM compound) | p-AKT relative to levels with 0.1 nM compound ([1]; 10 nM) | Normalized phosphorylated AKT (relative to actin) levels relative to 0.1 nM compound treatment ([1]; 10 nM) | Levels of phosphorylated AKT in treated cells (pAKT/actin) ([1]; 100 nM compound) | p-AKT relative to levels with 0.1 nM compound ([1]; 100 nM) | Normalized phosphorylated AKT (relative to actin) levels relative to 0.1 nM compound treatment ([1]; 100 nM) | further results
1 | CC(C)c1cc(Nc2nc(N3CCCC3C(=O)Nc3ccc(F)nc3)nc3c2CCC3)on1 (racemic) [Compound 12b, N-(6-fluoropyridin-3-yl)-1-(4-(3-isopropylisoxazol-5-ylamino)-6,7-dihydro-5H-cyclopenta[d]pyrimidin-2-yl)pyrrolidine-2-carboxamide] | – | – | 24% | -12% | 3.66 | 1.0 | 1.0 | 3.56 | 1.0 | 1.0 | 4.32 | 1.2 | 1.2 | 2.29 | 0.6 | 0.6 | inhibition at 0.03 µM (IGF-1R; [2]): 13%; inhibition at 0.03 µM (IGF-1R; [3]): 34%; inhibition at 0.03 µM (IR; [2]): -14%; inhibition at 0.03 µM (IR; [3]): -10%
2 | O=C(Nc1ccc(F)nc1)C1CCCN1c1nc2c(c(Nc3cc(C4CCCC4)[nH]n3)n1)CCC2 (single isomer, unassigned) [Compound 4a, 1-(4-(3-cyclopentyl-1H-pyrazol-5-ylamino)-6,7-dihydro-5H-cyclopenta[d]pyrimidin-2-yl)-N-(6-fluoropyridin-3-yl)pyrrolidine-2-carboxamide] | 10% | −8% | – | – | 2.38 | 1.0 | 1.0 | 1.64 | 0.7 | 0.7 | 1.76 | 0.7 | 0.7 | 1.47 | 0.6 | 0.6 | % Inh @ 30 nM (N1) (IGF-1R; N1): 4%; % Inh @ 30 nM (N2) (IGF-1R; N2): 17%; % Inh @ 30 nM (N1) (IR; N1, 0.03 µM): −14%; % Inh @ 30 nM (N2) (IR; N2, 0.03 µM): −2%
3 | O=C(Nc1ccc(F)nc1)C1CCCCN1c1nc2c(c(Nc3cc(C4CCCC4)[nH]n3)n1)CCC2 (single isomer, unassigned) [Compound 17b, 1-(4-(5-cyclopentyl-1H-pyrazol-3-ylamino)-6,7-dihydro-5H-cyclopenta[d]pyrimidin-2-yl)-N-(6-fluoropyridin-3-yl)piperidine-2-carboxamide] | 22% | 6% | – | – | 0.83 | 1.0 | 1.0 | 0.99 | 1.2 | 1.2 | 0.95 | 1.1 | 1.1 | 1.08 | 1.3 | 1.3 | % Inh @ 30 nM (N1) (IGF-1R; N1): 21%; % Inh @ 30 nM (N2) (IGF-1R; N2): 23%; % Inh @ 30 nM (N1) (IR; N1): 2%; % Inh @ 30 nM (N2) (IR; N2, 0.03 µM): 10%
4 | O=C(Nc1ccc(F)nc1)C1CCCN1c1nc2c(c(Nc3cc(C4CC4)[nH]n3)n1)CCC2 (single isomer, unassigned) [Compound 2a, 1-(4-(5-cyclopropyl-1H-pyrazol-3-ylamino)-6,7-dihydro-5H-cyclopenta[d]pyrimidin-2-yl)-N-(6-fluoropyridin-3-yl)pyrrolidine-2-carboxamide] | – | – | 3% | 5% | 1.70 | 1.0 | 1.0 | 1.78 | 1.0 | 1.0 | 1.81 | 1.1 | 1.1 | 1.72 | 1.0 | 1.0 | inhibition at 0.03 µM (IGF-1R; [2]): -12%; inhibition at 0.03 µM (IGF-1R; [3]): 18%; inhibition at 0.03 µM (IR; [2]): 0%; inhibition at 0.03 µM (IR; [3]): 10%
5 | O=C(Nc1ccc(F)nc1)C1CC(O)CN1c1nc2c(c(Nc3cc(C4CC4)[nH]n3)n1)CCC2 (single isomer, unassigned) [Compound 10d, 1-(4-(5-cyclopropyl-1H-pyrazol-3-ylamino)-6,7-dihydro-5H-cyclopenta[d]pyrimidin-2-yl)-N-(6-fluoropyridin-3-yl)-4-hydroxypyrrolidine-2-carboxamide] | – | – | 84% | 85% | – | – | – | – | – | – | – | – | – | – | – | – | –
6 | CC(C)c1cc(Nc2nc(N3CCC[C@@H]3C(=O)Nc3ccc(F)nc3)nc3c2CCC3)on1 (single isomer, unassigned) [Compound 12a] | – | – | – | 9% | 4.17 | 1.0 | 1.0 | 3.33 | 0.8 | 0.8 | 2.91 | 0.7 | 0.7 | 4.16 | 1.0 | 1.0 | inhibition at 0.03 µM (IR; [2]): 10%; inhibition at 0.03 µM (IR; [3]): 8%

More lines, main results first:

Row | % Inh @ 30 nM Avg (IGF-1R; average) | % Inh @ 30 nM Avg (IR; average) | inhibition at 0.03 µM (IGF-1R; [4]) | inhibition at 0.03 µM (IR; [4]) | SMILES | Levels of phosphorylated AKT in treated cells (pAKT/actin) ([1]; 0.1 nM compound) | p-AKT relative to levels with 0.1 nM compound ([1]; 0.1 nM) | Normalized phosphorylated AKT (relative to actin) levels relative to 0.1 nM compound treatment ([1]; 0.1 nM) | Levels of phosphorylated AKT in treated cells (pAKT/actin) ([1]; 1 nM compound) | p-AKT relative to levels with 0.1 nM compound ([1]; 1 nM) | Normalized phosphorylated AKT (relative to actin) levels relative to 0.1 nM compound treatment ([1]; 1 nM) | Levels of phosphorylated AKT in treated cells (pAKT/actin) ([1]; 10 nM compound) | p-AKT relative to levels with 0.1 nM compound ([1]; 10 nM) | Normalized phosphorylated AKT (relative to actin) levels relative to 0.1 nM compound treatment ([1]; 10 nM) | Levels of phosphorylated AKT in treated cells (pAKT/actin) ([1]; 100 nM compound) | p-AKT relative to levels with 0.1 nM compound ([1]; 100 nM) | Normalized phosphorylated AKT (relative to actin) levels relative to 0.1 nM compound treatment ([1]; 100 nM) | further results
7 | 39% | 32% | – | – | CC(C)c1cc(Nc2nc(N3CCCC3C(N)=O)nc3c2CCC3)n[nH]1 (single isomer, unassigned) [Compound 18b, 1-(4-(5-isopropyl-1H-pyrazol-3-ylamino)-6,7-dihydro-5H-cyclopenta[d]pyrimidin-2-yl)pyrrolidine-2-carboxamide] | – | – | – | – | – | – | – | – | – | – | – | – | –
8 | 21% | 9% | – | – | CNC(=O)C1CCCN1c1nc2c(c(Nc3cc(C(C)C)[nH]n3)n1)CCC2 (single isomer, unassigned) [Compound 19b, 1-(4-(5-isopropyl-1H-pyrazol-3-ylamino)-6,7-dihydro-5H-cyclopenta[d]pyrimidin-2-yl)-N-methylpyrrolidine-2-carboxamide] | – | – | – | – | – | – | – | – | – | – | – | – | –
9 | – | – | 66% | 60% | CC(C)c1cc(Nc2nc(N3CC(O)CC3C(=O)Nc3ccc(F)nc3)nc3c2CCC3)n[nH]1 (racemic) [Compound 70, N-(6-fluoropyridin-3-yl)-4-hydroxy-1-(4-(5-isopropyl-1H-pyrazol-3-ylamino)-6,7-dihydro-5H-cyclopenta[d]pyrimidin-2-yl)pyrrolidine-2-carboxamide] | – | – | – | – | – | – | – | – | – | – | – | – | IC50 (IGF-1R): 22 nM
10 | 14% | 3% | – | – | CC(C)c1cc(Nc2nc(N3CCCC3C(N)=O)nc3c2CCC3)n[nH]1 (single isomer, unassigned) [Compound 18a, 1-(4-(5-isopropyl-1H-pyrazol-3-ylamino)-6,7-dihydro-5H-cyclopenta[d]pyrimidin-2-yl)pyrrolidine-2-carboxamide] | – | – | – | – | – | – | – | – | – | – | – | – | –
11 | −3% | −9% | – | – | CNC(=O)C1CCCN1c1nc2c(c(Nc3cc(C(C)C)[nH]n3)n1)CCC2 (single isomer, unassigned) [Compound 19a, 1-(4-(5-isopropyl-1H-pyrazol-3-ylamino)-6,7-dihydro-5H-cyclopenta[d]pyrimidin-2-yl)-N-methylpyrrolidine-2-carboxamide] | – | – | – | – | – | – | – | – | – | – | – | – | –
12 | – | – | 13% | 8% | CC(C)c1cc(Nc2nc(N3CCCC3C(=O)N(C)c3ccc(F)nc3)nc3c2CCC3)n[nH]1 (stereo not drawn) [Compound 55a, N-(6-fluoropyridin-3-yl)-1-(4-((5-isopropyl-1H-pyrazol-3-yl)amino)-6,7-dihydro-5H-cyclopenta[d]pyrimidin-2-yl)-N-methylpyrrolidine-2-carboxamide] | – | – | – | – | – | – | – | – | – | – | – | – | –
